According to paper PMC9481570, “A small molecule antagonist of SMN disrupts the interaction between SMN and RNAP II” (Nature Communications, 2022):

Legend:
SMN_W102A = target: T1, SMN_W102A (Homo sapiens, UniProt Q16637, W102A); assay: ITC binding to SMN Tudor mutant W102A; details: Fig. 3d
T1 construct: SMN (aa 82–147); His (N, cleaved yes); made in house; host or cells: E. coli BL21 (DE3) Codon plus RIL
Text: (§1) The coding DNA fragments of following Tudor domains were cloned into pET28-MHL vector: SMN (aa 82–147), UHRF1 (aa 126–285), SMNDC1 (aa 53–130), TDRD3 (aa 554–611), SND1 (aa 650–910), TDRD2 (aa 327–420), FXR1 (aa 2–132), PHF1 (aa 28–87), SGF29 (aa 115–293), JMJD2A (aa 897–1101), 53BP1 (aa 1483–1606), SETDB1 (aa 190–410), LBR (aa 1–67), ZGPAT (aa 120–271). The coding regions of chromodomain of CBX7 (aa 8–62), PWWP domain of DNMT3A (aa 275–417), WD40 repeats of WDR5 (aa 24–334) and CW domain of ZCWPW2 (aa 21–78) were also subcloned into pET28-MHL vector to generate N-terminally His-tagged fusion protein. The MBT repeats of L3MBTL1 (aa 200–522) and L3MBTL2 (aa 170–625) were subcloned into pET28GST-LIC vector to generate N-terminally GST-His-tagged fusion protein. All the plasmids were generated by ligase independent cloning (Vazyme Biotech, C112 or ABclonal Technology, RK21020). […] The molecular weight of all protein samples was measured by mass spectrometry.
(§2) For the ITC measurement, the concentrated proteins were diluted into 20 mM Tris-HCl, pH 7.5, 150 mM NaCl (ITC buffer); the lyophilized compounds were dissolved in the same buffer, and the pH value was adjusted by adding 2 M NaOH or 2 M HCl. […] Compound concentrations were calculated from the mass and the volume of the solvent. […]

ZCWPW2 (CW) = target: T2, ZCWPW2 (CW) (Homo sapiens, UniProt Q504Y3); assay: ITC binding to CW domain of ZCWPW2; details: Fig. 1c
T2 construct: ZCWPW2 (aa 21–78); His (N, cleaved yes); made in house; host or cells: E. coli BL21 (DE3) Codon plus RIL
Text: as §1, §2

[1] = Solubility of the hit compound; format: physicochemical
Experimental: Screen Format 384-well black plates (Greiner, 784290)
Concentration(s) tested 2 mM compound with 2% DMSO (final concentration), 40 nM FITC-labeled H3K9me3 peptide, 8 μM tandem
Tudor domain of UHRF1 protein
Plate controls Background: FITC-labeled peptide only; negative control: FITC-labeled peptide and protein; positive control: FITC-labeled peptide and protein plus unlabeled H3K9me3 peptide
Reagent/ compound dispensing system Agilent Bravo robot
Detection instrument and software Synergy 4 microplate reader (BioTek), GraphPad […]
Assay validation/QC Z’ factor = 0.8
Correction factors Background value
Normalization All the digital values of fluorescence polarization signal subtract the background signal value.
Additional comments High concentrations (>2.5%) of DMSO might affect peptide binding and signal-to-noise ratios
Post-HTS analysis Hit criteria The signal of negative control was set as 100%. When the signal of sample was less than 50% of negative control, it was taken as hit.
Additional assay(s) The hits were further confirmed by dose response analysis with 1 mM as the highest concentration of the hits and 11 serial dilutions by 2 times, and then by isothermal titration calorimetry assay.
Confirmation of hit purity and structure The compound was repurchased (Specs, ID: AG- […]

JMJD2A = target: T3, JMJD2A (Homo sapiens, UniProt O75164); assay: ITC binding to JMJD2A; details: Fig. 1c
T3 construct: JMJD2A (aa 897–1101); His (N, cleaved yes); made in house; host or cells: E. coli BL21 (DE3) Codon plus RIL
Text: as §1, §2

T3 sequence (O75164 897-1064): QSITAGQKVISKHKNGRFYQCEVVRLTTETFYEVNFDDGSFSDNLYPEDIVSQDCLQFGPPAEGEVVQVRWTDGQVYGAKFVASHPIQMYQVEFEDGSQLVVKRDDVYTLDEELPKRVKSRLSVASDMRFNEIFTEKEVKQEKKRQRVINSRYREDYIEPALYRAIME
T1 sequence (Q16637 82-147 W102A): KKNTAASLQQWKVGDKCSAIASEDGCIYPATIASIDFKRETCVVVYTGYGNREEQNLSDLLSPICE
T2 sequence (Q504Y3 21-78): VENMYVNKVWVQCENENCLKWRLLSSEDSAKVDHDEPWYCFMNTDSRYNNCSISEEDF

Question: Which results are given for `Cn1c2c(c(=N)c3c1CCC3)CCC2` [Compound 1, 4-methyl-2,3,4,5,6,7-hexahydrodicyclopenta[b,e]pyridin-8(1H)-imine]?
Answer: Kd (SMN_W102A): > 244 µM; Kd (ZCWPW2 (CW)): > 244 µM; concentration dissolved in DMSO ([1]; DMSO): 100000 µM; solubility in buffer at high concentration ([1]; buffer): but not in buffer; Kd (JMJD2A): > 244 µM
